# Data from patent publication US20110300129A1, “SYSTEMS AND METHODS FOR ENHANCING VACCINE EFFICACY” (UNIVERSITY OF ROCHESTER, priority 2008, published 2011).
# Key:
# [1] = tested on: purified human B lymphocytes; assay: Antibody production, IgM and IgG ELISA of B cell supernatants; format: cell-based
# Experimental: Antibody Production: Purified human B lymphocytes (5×10^5 cells/ml) were cultured in 96-well round-bottom microtiter plates. […] Pilot experiments were performed to optimize the doses of PPARγ and RXR ligands. […] Supernatants were harvested and the concentrations of IgM and IgG were analyzed using human-specific ELISAs (Bethyl Laboratories).
# peripheral blood B cells [2] = assay: Plasma cell differentiation, CD38/CD27 surface labeling by flow cytometry; format: cell-based, human; conditions: for percentage of CD38highCD27high B cells (plasma cells): Rosiglitazone 0.5 μM, 15d-PGJ2 0.2 μM; for percentage of CD38highCD27high B cells (plasma cells) / percentage of CD38-expressing naive B cells (CD38highCD27low): 9-cis-RA 100 nM
# Experimental: Intracellular and Surface Labeling: B cells were incubated with mouse anti-human CD19-APC (BD Biosciences), anti-human CD38-PE (BD Biosciences) and/or anti-human CD27-APC (BD Biosciences) in cold PBS with sodium azide (0.02%) and BSA (0.3%) for 20 min at 20° C. COX-2 intracellular staining was performed as described previously (Padilla et al., “Human B Lymphocytes and B Lymphomas Express PPAR-γ and Are Killed by PPAR-γ Agonists,” Clin Immunol 103:22-33 (2002), which is hereby incorporated by reference in its entirety). All samples were acquired on a BD Biosciences FACS Calibur flow cytometer and analyzed using FlowJo software (Tree Star, Inc. Ashland, Oreg.).
# Peripheral-blood B lymphocytes include both naive and memory B cell populations. These two B cell subsets can be distinguished based on CD27 expression, which is a marker of memory B cells (Agematsu et al., “CD27: A Memory B-cell Marker,” Immunol Today 21:204-206 (2000), each of which is hereby incorporated by reference in its entirety).
# human B cells = assay: B cell viability (7-AAD incorporation, cell size, 3H-thymidine incorporation); format: cell-based; conditions: Rosiglitazone 0.5 μM, 15d-PGJ2 0.2 μM; pilot experiments
# purified human B cells = assay: B cell proliferation, CFSE cell division by flow cytometry; format: cell-based; conditions: CpG-activated B cells, 5 days; for cell division compared to vehicle control: Rosiglitazone 0.5 μM, 15d-PGJ2 0.2 μM
# Experimental: Proliferation: For cell division, a CellTrace™ CFSE Cell Proliferation Kit (Invitrogen, Carlsbad, Calif.) was used according to the manufacturer's protocol. Briefly, cells were labeled with 0.5 μM CFSE (carboxyfluorescein diacetate succinimidyl ester) for 15 minutes at 37° C., followed by two washes with 1×PBS, and then resuspended in RPMI culture media containing 10% FBS. Cells were then plated at a density of 1×10^5 cells/well in a 96-round bottom plate. Five days later, cells were acquired using a BD Biosciences FACS Calibur flow cytometer and analyzed using FlowJo software (Tree Star, Inc. Ashland, Oreg.).
# Five days after activation, cells were analyzed by flow cytometry. […] FIG. 2B illustrates the percent of cell division for three different B cell donors.
# [3] = tested on: Cox-2 expression in B cells; assay: Cox-2 intracellular staining of CD19+ B cells, flow cytometry; format: cell-based, human; conditions: for percentage of B cells which express Cox-2: CpG 1 μg/ml, Rosiglitazone 0.5 μM, 15d-PGJ2 0.2 μM, 3% untreated
# Experimental: Intracellular and Surface Labeling: B cells were incubated with mouse anti-human CD19-APC (BD Biosciences), anti-human CD38-PE (BD Biosciences) and/or anti-human CD27-APC (BD Biosciences) in cold PBS with sodium azide (0.02%) and BSA (0.3%) for 20 min at 20° C. […] All samples were acquired on a BD Biosciences FACS Calibur flow cytometer and analyzed using FlowJo software (Tree Star, Inc. Ashland, Oreg.).
# Therefore, the levels of Cox-2 expression were evaluated following PPARγ ligand treatment.
# [4] = tested on: BLIMP-1 expression in B cells; assay: BLIMP-1 expression in B cells, Western blot densitometry; format: cell-based, human; conditions: for BLIMP-1 induction over CpG-treated cells (densitometry): CpG 1 μg/ml plus ligand, 72 hrs
# Experimental: (§1) Western Blots: Whole cell extracts were collected using ELB buffer (50 mM HEPES (pH 7), 250 mM NaCl, 0.1% Nonidet P-40, 5 mM EDTA, 10 mM NaF, 0.1 mM Na3VO4, 50 μM ZnCl2, supplemented with 0.1 mM PMSF, 1 mM DTT, and a mixture of protease and phosphatase inhibitors) and total protein was quantified using bicinchoninic acid protein assay (BCA assay kit) (Pierce, Rockford, Ill.). Twenty-five micrograms of protein was electrophoresed on 8-16% Precise™ protein gels (Pierce, Rockford, Ill.) and transferred to polyvinylidene fluoride (PVDF) membrane (Millipore, Billerica, Mass.). The membranes were analyzed for immunoreactivity with the indicated primary antibody, washed and then incubated with an appropriate horseradish peroxidase-conjugated secondary antibody. The membranes were visualized by chemiluminescence using an ECL kit (Pierce, Rockford, Ill.).
# Lastly, BLIMP-1 expression was evaluated. BLIMP-1 is a transcription factor important in B cell differentiation (Shaffer et al., “Blimp-1 Orchestrates Plasma Cell Differentiation by Extinguishing the Mature B Cell Gene Expression Program,” Immunity 17:51-62 (2002), which is hereby incorporated by reference in its entirety). […] When B cells were treated with a combination of CpG and PPARγ ligands, there was a further increase in BLIMP-1 expression.
# peripheral blood B cells [5] = conditions: Morikawa et al. 2005; cited from earlier work
# PPARγ = biological target: T1, PPARγ (Homo sapiens, UniProt P37231); assay: PPARγ gene reporter analysis (PPRE-luciferase) in transfected B cells; format: cell-based
# T1 construct: normal B cells were transfected with a PPARγ luciferase reporter construct; endogenous in cells
# T1 sequence (P37231 1-505): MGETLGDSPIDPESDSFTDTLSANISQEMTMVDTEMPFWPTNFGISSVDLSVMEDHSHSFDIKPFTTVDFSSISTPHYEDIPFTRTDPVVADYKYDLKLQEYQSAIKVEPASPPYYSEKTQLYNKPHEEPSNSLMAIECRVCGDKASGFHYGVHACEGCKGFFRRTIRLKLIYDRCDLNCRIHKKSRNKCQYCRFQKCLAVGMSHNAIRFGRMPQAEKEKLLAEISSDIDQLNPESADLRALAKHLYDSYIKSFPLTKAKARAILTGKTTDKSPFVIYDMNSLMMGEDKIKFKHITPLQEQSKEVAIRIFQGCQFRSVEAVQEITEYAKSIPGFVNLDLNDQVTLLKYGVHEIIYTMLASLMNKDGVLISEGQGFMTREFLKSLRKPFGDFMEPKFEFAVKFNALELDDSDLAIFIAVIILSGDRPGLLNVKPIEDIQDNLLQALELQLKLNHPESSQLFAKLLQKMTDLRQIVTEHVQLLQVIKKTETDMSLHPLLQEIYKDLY
# Experimental: Twenty-four hours after treatments, luciferase activity was assayed using the Promega Luciferase Assay System (Madison, Wis.). Relative light units (RLU) were determined with a Lumicount Microplate Luminometer (Packard Instrument Co., Meriden, Conn., USA). Relative light units (RLU) were normalized to transfection efficiency that was monitored by cotransfection of GFP expression vector.
# To test whether the PPARγ ligand concentrations used here activated PPARγ, normal B cells were transfected with a PPARγ luciferase reporter construct.
# [6] = tested on: PPARγ expression in human B cells; assay: Intracellular PPARγ staining of B cells, flow cytometry; format: cell-based; conditions: activated B cells
# Experimental: For intracellular staining for PPARγ, untreated or activated B lymphocytes were surface stained with 20 μl of APC anti-human CD19 mAb (BD Biosciences) for 30 minutes in the dark at room temperature (RT). Cells were then fix and permeabilized with BD Cytofix/Cytoperm Fixation/Permeabilization Kit following the manufacturer's instructions. A FITC-Conjugated anti-human PPARγ antibody was used at a 1/100 dilution. An equal amount of IgG1 FITC mAb was used as an isotype control.
# [7] = tested on: PPARγ expression in human B cells; assay: PPARγ expression in activated B cells, Western blot densitometry; format: cell-based; conditions: 48 hr; 2 μg/ml anti-IgM Ab, 1 μg/ml CpG; three donors; 'up to'
# Text: B Cell Isolation: Normal B lymphocytes were isolated from a unit of whole blood from healthy donors with ethical permission from the Research Subjects Review Board at the University of Rochester. The isolation of normal B lymphocytes has been previously described (Ryan, et al., “Activated Human B Lymphocytes Express Cyclooxygenase-2 and Cyclooxygenase Inhibitors Attenuate Antibody Production,” J Immunol 174:2619-2626 (2005), which is hereby incorporated by reference in its entirety). Briefly, buffy coats were obtained from whole blood and peripheral blood mononuclear cells (PBMCs) were obtained using Ficoll-Paque (Amersham Biosciences AB) gradient centrifugation. […] B lymphocyte purity was >98% CD19 positive (as determined by flow cytometry, data not shown). […]
# as §1, with “Twenty-five micrograms of protein was electrophoresed on 8-16% Precise™ protein gels (Pierce, Rockford, Ill.) and transferred to polyvinylidene fluoride (PVDF) membrane (Millipore, Billerica, Mass.).” left out, “The membranes were visualized by chemiluminescence using an ECL kit (Pierce, Rockford, Ill.).” left out
# [8] = addition of SC-58125 10 μM, 6 days
compound,measurement,setting,value
CS(=O)(=O)c1ccc(-n2nc(C(F)(F)F)cc2-c2ccc(F)cc2)cc1 [SC-58125],IgG production of CpG-stimulated B cells,[1]; [8],significantly reduced
same,IgM production of CpG-stimulated B cells,[1]; [8],significantly reduced
same,increased antibody production upon PPARγ ligand treatment,"[1]; addition of SC-58125 10 μM, CpG, 6 days",significantly reduced
"CN(CCOc1ccc(CC2SC(=O)NC2=O)cc1)c1ccccn1 (centres unmarked) [Rosiglitazone, 5-[4-[2-[N-methyl-N-(2-pyridyl)amino]ethoxy]benzyl]thiazolidine-2,4-dione]",percentage of CD38highCD27high B cells (plasma cells),"peripheral blood B cells [2]; CpG 1 μg/ml, 5 days",10.7±1.6%
same,cell viability,human B cells,did not adversely affect cell viability
same,cell division compared to vehicle control,purified human B cells,increased cell division
same,percentage of B cells which express Cox-2,[3],36%
same,BLIMP-1 induction over CpG-treated cells (densitometry),[4],~6 fold
"CC1=C(/C=C/C(C)=C\C=C\C(C)=C\C(=O)O)C(C)(C)CCC1 [9-cis-RA, 9-cis-retinoic acid]","CD38highCD27high cells, fold over vehicle","peripheral blood B cells [2]; CpG 1 μg/ml, 5 days",~1.7 fold
same,"CD38highCD27low cells, fold vs. CpG plus vehicle","peripheral blood B cells [2]; CpG 1 μg/ml, 5 days",~3.5 fold
same,percentage of CD38-expressing naive B cells (CD38highCD27low),"peripheral blood B cells [2]; CpG 1 μg/ml, 5 days",30.2±5.5%
same,percentage of CD38highCD27high B cells (plasma cells),"peripheral blood B cells [2]; CpG 1 μg/ml, 5 days",10.3±1.9%
same,percentage of dividing cells,"purified human B cells; ligand alone, 9-cis-RA 100 nM",increased the percentage of dividing cells
same,IgG production over vehicle control,"[1]; CpG-activated cells, 6 days",significantly induced
same,IgM production over vehicle control,"[1]; CpG-activated cells, 6 days",significantly induced
"CC1=C(/C=C/C(C)=C/C=C/C(C)=C/C(=O)O)C(C)(C)CCC1 [ATRA, all-trans-retinoic acid]",CD38 expression,peripheral blood B cells [5],induces CD38 expression
same,antibody production,peripheral blood B cells [5],increases antibody production
O=C(Nc1ccccc1)c1cc([N+](=O)[O-])ccc1Cl [GW9662],PPARγ ligand-induced CD38 expression in memory B cells,"peripheral blood B cells [2]; with GW9662 500 nM, CpG",attenuated
same,effects of PPARγ ligands on IgG production,"[1]; with GW9662 500 nM, CpG, 6 days",abolished
same,expression of BLIMP-1 compared to CpG alone,[4]; CpG and GW9662 500 nM,decrease
same,increase in BLIMP-1 by Rosiglitazone and 15d-PGJ2,"[4]; CpG-activated B cells, with GW9662 500 nM",dramatically attenuated
"CCCCCC=CC=C1C(=O)C=C[C@@H]1CC=CCCCC(=O)O [15d-PGJ2, 15-deoxy-Δ^12,14 Prostaglandin J2]",luciferase activity (PPRE reporter),"PPARγ; CpG-activated B cells, 24 h treatment, Rosiglitazone 0.5 μM, 15d-PGJ2 0.2 μM",increased luciferase activity
same,"CD38highCD27high cells, fold over vehicle","peripheral blood B cells [2]; CpG 1 μg/ml, 5 days",~2 fold
same,percentage of CD38highCD27high B cells (plasma cells),"peripheral blood B cells [2]; CpG 1 μg/ml, 5 days",12.5±1.4%
same,cell viability,human B cells,did not adversely affect cell viability
same,cell division compared to vehicle control,purified human B cells,increased cell division
same,percentage of B cells which express Cox-2,[3],43%
same,BLIMP-1 induction over CpG-treated cells (densitometry),[4],~9 fold
"CpG: CpG oligodeoxynucleotides 2395 5′-TCGTCGTTTTCGGCGCGCGCCG-3′ (SEQ ID NO: 1), a TLR-9 ligand, mitogen (chemistry not given here)",PPARγ activity (PPRE reporter),PPARγ; CpG-activated B cells with no exogenous PPARγ ligand,did not induce PPARγ activity
same,percentage of CD38-expressing naive B cells (CD38highCD27low),"peripheral blood B cells [2]; CpG 1 μg/ml, 5 days",9.1±0.6%
same,percentage of CD38highCD27high B cells (plasma cells),"peripheral blood B cells [2]; CpG 1 μg/ml, 5 days",7.0±1.7%
same,intracellular PPARγ levels compared to untreated B cells,[6],increased
same,PPARγ protein levels increase compared to untreated B cells (densitometry of Western blot),[7],≤ 14.3 fold
same,percentage of B cells which express Cox-2,[3],27%
same,levels of Cox-2 expression (mean fluorescence intensity),[3]; FIG. 6B,increased the levels of Cox-2 expression
same,IgG production,"[1]; CpG 1 μg/ml alone, 5 days",significantly induced
same,IgM production,"[1]; CpG 1 μg/ml alone, 5 days",significantly induced
same,BLIMP-1 protein levels compared to untreated or freshly isolated B cells,[4]; CpG treatment,significantly upregulated
